*1 amine or outer side, *2 acyl side, *3 side chain or, on linkers, in order; H or OH if unused. Where a SMILES comes first, the peptide text is derived from it. [ ]: non-standard residue; d: D form. X1 = CC[C@@H](C)[C@@H](O[*:1])C(=O)[*:2]; NMeVal(β-OH) = CN[C@H](C(=O)O)C(C)(C)O; NMeF = CN[C@@H](Cc1ccccc1)C(=O)O; aIle = CC[C@@H](C)[C@H](N)C(=O)O; NMeV = CN[C@H](C(=O)O)C(C)C
Test system: strain lcb1::kanMX, pNS149
Assay: IPC synthase screen: growth inhibition of the engineered yeast strain with or without added phytosphingosine
Assay type: cell-based, S. cerevisiae
From the text: Therefore in a first aspect of the present invention we provide a screening assay for identifying a selective IPC synthase inhibitor which assay comprises contacting a test compound with engineered cells whose capability to synthesize sphingolipids depends on the addition of exogenous phytosphingosine and which are capable of sustained growth via compensatory phospholipids, adding phytosphingosine, and determining IPC synthase inhibition by the test compound by reference to any cell growth inhibition.
The utility of the lcb1::kanMX pNS149 strain to identify inhibitors of IPC synthase was evaluated using aureobasidinA as a test compound. The lcb1::kanMX pNS149 strain is a further independent aspect of the invention.
Inhibition of growth by aureobasidinA in strain lcb1::kanMX, pNS149 with added phytosphingosine.
Inhibition of growth by aureobasidinA in strain lcb1::kanMX, pNS149 without added phytosphingosine.

Question: How did the Inhibition of growth (pNS149, with added phytosphingosine (FIG. 1a)) turn out when `CC[C@@H](C)[C@@H]1NC(=O)[C@@H]2CCCN2C(=O)[C@H](Cc2ccccc2)N(C)C(=O)[C@H](Cc2ccccc2)NC(=O)[C@H](C(C)C)N(C)C(=O)[C@@H]([C@H](C)CC)OC(=O)[C@H](C(C)(C)O)N(C)C(=O)[C@H](CC(C)C)NC(=O)[C@H](C(C)C)N(C)C1=O` [aureobasidinA] (cyclo(F[NMeF]P[aIle][NMeV]L[NMeVal(β-OH)][X1][NMeV])) was run?
Answer: The Inhibition of growth was “very pronounced”.

Question: What about the Inhibition of growth (pNS149, without added phytosphingosine (FIG. 1b)) of the same compound?
Answer: The Inhibition of growth was “absent”.

Source: patent US6808892B1, “Method for identifying inhibitors of IPC synthase” (AstraZeneca AB, priority 1998, dated 2004)
